Measurements as given in publication PMC9841533, “Microtubule-Stabilizing 1,2,4-Triazolo[1,5-a]pyrimidines as Candidate Therapeutics for Neurodegenerative Disease: Matched Molecular Pair Analyses and Computational Studies Reveal New Structure–Activity Insights” (Journal of Medicinal Chemistry, 2022).
Counter-ions that a name gives are not always drawn. Like-named read-outs stand apart in the source and are kept apart here.

Tests used:
[1] = tested on: total α-tubulin (α-Tub) levels in QBI293 cells; assay: QBI293 cell assay: total α-tubulin ELISA; assay type: cell-based
Method: (§1) All test compounds were initially screened in the same cell-based (QBI293) assay of MT stabilization used in our previous SAR studies[11],[12] so as to allow direct comparison with literature data. Changes in levels of acetylated α-tubulin (AcTub) and total α-tubulin (α-Tub), relative to vehicle-treated negative control cells, were determined after 4 h of incubation with test compounds at 1 and 10 μM. To account for possible day-to-day differences in the responsiveness of cells to MT-stabilizing treatment, compound-dependent changes in AcTub levels relative to DMSO-treated cells were also normalized to the corresponding changes caused by 100 nM of 5 that was used as a positive control. In addition, docking studies, binding free energy calculations, and in selected cases, molecular dynamic simulations were conducted using an X-ray structure of the vinca and seventh sites (PDB: 5NJH,[10]7CLD[13]). […] For selected compounds, additional studies included testing in the QBI293 cell AcTub assay at additional compound concentrations, and/or evaluation of test compounds for their ability to prevent MT collapse in primary neuron cultures treated with the phosphatase inhibitor, okadaic […] (OA). Finally, cytotoxicity studies in QBI293 and HeLa cells were also conducted for representative examples (Supporting Information).
(§2) Compound-induced changes in acetylated-tubulin and α-tubulin in QBI293 cells or primary mouse or rat neurons were as previously described.[11],[12] […] The plated cells were incubated overnight, after which the medium was aspirated and fresh medium containing vehicle (0.25–0.3% DMSO) or test compound was added. Test compounds were prepared as 4–20 mM stock solutions in 100% DMSO, and these were diluted in culture medium prior to addition to the QBI293 cells. After 4 h incubation, whole-cell extracts were prepared from the QBI293 cells as described[11] and the supernatant fraction from each sample was assessed for protein content by bicinchoninic acid (BCA) assay. The amount of acetyl-tubulin (AcTub) and α-tubulin (αTub) within the cell extract samples was quantified using specific enzyme-linked immunosorbent assays (ELISA), as previously described.[11] Acetyl-tubulin levels were determined in a similar manner in rat or mouse cortical neuron cultures in which embryonic dissociated cortical neurons were plated at 3 × 10^5 cells/well in poly-D-lysine-coated 12-well plates, essentially as previously described.[11] […] Culture homogenates were prepared for the determination of AcTub levels by ELISA as previously described.[11]

[2] = tested on: acetylated α-tubulin (AcTub) levels in QBI293 cells; assay: QBI293 cell assay of MT stabilization: acetylated α-tubulin ELISA; assay type: cell-based
Method: as §1, §2

[3] = 4 h, 1 uM compound, read-out: AlfaTub (1uM)
[4] = 4 h, 10 uM compound, read-out: AlfaTub (10 uM)
[5] = 4 h incubation, 1 μM, read-out: α-Tub 1 μM, fold-change compared to vehicle (DMSO)-treated cells
[6] = 4 h incubation, 10 μM, read-out: α-Tub 10 μM, fold-change compared to vehicle (DMSO)-treated cells
[7] = 4 h, 1 uM compound, read-out: AcTub (1uM)
[8] = 4 h, 10 uM compound, read-out: AcTub (10 uM)
[9] = 4 h incubation, 1 μM, read-out: AcTub 1 μM, fold-change compared to vehicle (DMSO)-treated cells
[10] = 4 h incubation, 10 μM, read-out: AcTub 10 μM, fold-change compared to vehicle (DMSO)-treated cells

Row | SMILES | fold induction at 1 µM [1, 3] | fold induction at 10 µM [1, 4] | fold induction at 1 µM [1, 5] | fold induction at 10 µM [1, 6] | AcTub (1 uM - normalized) ([2]; 1 uM compound) | AcTub (10 uM - normalized) ([2]; 10 uM compound) | fold induction at 1 µM [2, 7] | fold induction at 10 µM [2, 8] | AcTub 1 μM, fold-change compared to positive control compound 5 (100 nM) (in parentheses) ([2]; 4 h incubation, 1 μM) | fold induction at 1 µM [2, 9] | AcTub 10 μM, fold-change compared to positive control compound 5 (100 nM) (in parentheses) ([2]; 4 h incubation, 10 μM) | fold induction at 10 µM [2, 10]
1 | CC(C)[C@@H](C)Nc1c(-c2c(F)cc(C#CCCN(C)C)cc2F)c(Cl)nc2ncnn12 [Compound 52, (R)-5-Chloro-6-(4-(4-(dimethylamino)but-1-yn-1-yl)-2,6-difluorophenyl)-N-(3-methylbutan-2-yl)-[1,2,4]triazolo[1,5-a]pyrimidin-7-amine 2,2,2-Trifluoroacetate] | 1 | 1.15 | 1 ± 0.02 | 1.15 ± 0.02 | 1.75 | 1.24 | 9.5 | 6.7 | 1.75 fold-change | 9.5 ± 0.22 | 1.24 fold-change | 6.7 ± 0.5
2 | C#Cc1cc(F)c(-c2c(Cl)nc3ncnn3c2N[C@H](C)C(C)C)c(F)c1 [Compound 34, (R)-5-Chloro-6-(4-ethynyl-2,6-difluorophenyl)-N-(3-methylbutan-2-yl)-[1,2,4]triazolo[1,5-a]pyrimidin-7-amine] | 0.98 | 1.03 | 0.98 ± 0.002 | 1.03 ± 0.008 | 0.39 | 0.88 | 3.56 | 8.02 | 0.39 fold-change | 3.56 ± 0.27 | 0.88 fold-change | 8.02 ± 0.25
3 | C[C@@H](Nc1c(-c2c(F)cc(F)cc2F)c(Cl)nc2ncnn12)C1CC1 [Compound 17, (R)-5-Chloro-N-(1-cyclopropylethyl)-6-(2,4,6-trifluorophenyl)-[1,2,4]triazolo[1,5-a]pyrimidin-7-amine] | 1.06 | 1.16 | 1.06 ± 0.07 | 1.16 ± 0.02 | 0.19 | 0.4 | 1.95 | 3.99 | 0.19 fold-change | 1.95 ± 0.18 | 0.40 fold-change | 3.99 ± 0.1
4 | C[C@@H](Nc1c(-c2c(F)cc(C#CCCN)cc2F)c(Cl)nc2ncnn12)C(C)(C)C [Compound 57, (R)-6-(4-(4-Aminobut-1-yn-1-yl)-2,6-difluorophenyl)-5-chloro-N-(3,3-dimethylbutan-2-yl)-[1,2,4]triazolo[1,5-a]pyrimidin-7-amine Hydrochloride] | 0.96 | 0.91 | 0.96 ± 0.026 | 0.91 ± 0.12 | 0.83 | 1.21 | 2.49 | 3.66 | 0.83 fold-change | 2.49 ± 0.17 | 1.21 fold-change | 3.66 ± 0.58
5 | CNCC#Cc1cc(F)c(-c2c(Cl)nc3ncnn3c2N[C@H](C)C(C)(C)C)c(F)c1 [Compound 59, (R)-5-Chloro-6-(2,6-difluoro-4-(3-(methylamino)prop-1-yn-1-yl)phenyl)-N-(3,3-dimethylbutan-2-yl)-[1,2,4]triazolo[1,5-a]pyrimidin-7-amine Hydrochloride] | 0.93 | 1 | 0.93 ± 0.02 | 1 ± 0.03 | 0.81 | 1.16 | 6.03 | 8.67 | 0.81 fold-change | 6.03 ± 0.64 | 1.16 fold-change | 8.67 ± 0.16
6 | CN(C)CCCOc1cc(F)c(-c2c(Cl)nc3ncnn3c2NCC2CCC2)c(F)c1 [Compound 30, 5-Chloro-N-(cyclobutylmethyl)-6-(4-(3-(dimethylamino)propoxy)-2,6-difluorophenyl)-[1,2,4]triazolo[1,5-a]pyrimidin-7-amine] | 0.8 | 0.93 | 0.8 ± 0.03 | 0.93 ± 0.05 | 0.61 | 0.15 | 1.49 | 0.37 | 0.61 fold-change | 1.49 ± 0.18 | 0.15 fold-change | 0.37 ± 0.12
7 | C[C@@H](Nc1c(-c2c(F)cc(C#CCN(C)C)cc2F)c(Cl)nc2ncnn12)C(C)(C)C [Compound 55, (R)-5-Chloro-6-(4-(3-(dimethylamino)prop-1-yn-1-yl)-2,6-difluorophenyl)-N-(3,3-dimethylbutan-2-yl)-[1,2,4]triazolo[1,5-a]pyrimidin-7-amine] | 1 | 0.84 | 1 ± 0.05 | 0.87 ± 0.01 | 0.45 | 1.43 | 1.36 | 4.32 | 0.45 fold-change | 1.36 ± 0.08 | 1.43 fold-change | 4.32 ± 0.28
8 | C[C@H](Nc1c(-c2c(F)cc(OCCCCO)cc2F)c(Cl)nc2ncnn12)C(F)(F)F [Compound 19, (S)-4-(4-(5-Chloro-7-((1,1,1-trifluoropropan-2-yl)amino)-[1,2,4]triazolo[1,5-a]pyrimidin-6-yl)-3,5-difluorophenoxy)butan-1-ol] | 0.62 | 0.35 | 0.62 ± 0.05 | 0.35 ± 0.04 | 0.59 | 0.6 | 7.3 | 7.04 | 0.59 fold-change | 7.3 ± 1.51 | 0.6 fold-change | 7.04 ± 0.04
9 | CC(C)[C@@H](C)Nc1c(-c2c(F)cc(C#CCN(C)C)cc2F)c(Cl)nc2ncnn12 [Compound 47, (R)-5-Chloro-6-(4-(3-(dimethylamino)prop-1-yn-1-yl)-2,6-difluorophenyl)-N-(3-methylbutan-2-yl)-[1,2,4]triazolo[1,5-a]pyrimidin-7-amine] | 0.98 | 1.03 | 0.98 ± 0.04 | 1.03 ± 0.04 | 0.40 | 1.4 | 2.21 | 7.7 | 0.40 fold-change | 2.21 ± 0.6 | 1.40 fold-change | 7.68 ± 0.85
